PMC2865235 (Journal of pharmaceutical and biomedical analysis, 2010)
Where two headings read alike, the source gives them in different places.

Columns and labels:
[1] = test system: ABCG2; conditions: cited from earlier work
[2] = test system: ABCB1; conditions: cited from earlier work
[3] = human, 4 h
[4] = test system: P388 cells; conditions: read-out: 72 h IC50, ref [2]; cited from earlier work
[5] = test system: MCF-7 cells; conditions: read-out: 72 h IC50, ref [2]; cited from earlier work
[6] = test system: HCT-116 cells; conditions: read-out: 72 h IC50, ref [2]; cited from earlier work
[7] = test system: Topo I cleavage complexes; conditions: drug 1 μM, compared with CPT or SN-38; ref [2]; cited from earlier work
[8] = test system: cell cycle; conditions: in vitro; ref [2]; cited from earlier work

Row | Protein binding in human plasma [%] | Stability in plasma at room temperature [3] [%] | Compound | Substrate for the efflux pump ABCG2 ([1]; ref [2]) | Substrate for the efflux pump ABCG2 ([1]; not told) | Substrate for ABCB1 [2] | IC50 [4] [µM] | IC50 [5] [µM] | IC50 [6] [µM] | Persistence of Topo I cleavage complexes after removal of drug [7] | Cell cycle arrest [8]
1 | – | – | CC[C@@]1(O)C(=O)OCc2c1cc1n(c2=O)Cc2cc3ccccc3nc2-1 [Camptothecin, camptothecin] | good substrates | – | – | – | – | – | – | –
2 | – | – | COc1cc2c3c(n(CCCN4CCOCC4)c(=O)c2cc1OC)-c1cc2c(cc1C3=O)OCO2 [NSC 724998] | – | not a substrate | not a substrate | – | – | – | – | –
3 | > 98 | > 94.3 | COc1cc2c3c(n(CCCn4ccnc4)c(=O)c2cc1OC)-c1cc2c(cc1C3=O)OCO2 [NSC 725776] | – | moderate substrate | moderate substrate | < 0.03 | 0.09 | 0.13 | persisted longer | cell cycle arrest in both S and G(2)-M
4 | > 98 | > 94.3 | COc1cc2c3c(n(CCCN4CCOCC4)c(=O)c2cc1OC)-c1cc2c(cc1C3=O)OCO2.Cl [NSC 743400] | – | – | – | 0.3 | 0.56 | 1.2 | persisted longer | cell cycle arrest in both S and G(2)-M
5 | – | – | CCc1c2c(nc3ccc(O)cc13)-c1cc3c(c(=O)n1C2)COC(=O)[C@]3(O)CC [SN-38] | good substrates | – | – | – | – | – | – | –
6 | – | – | CC[C@@]1(O)C(=O)OCc2c1cc1n(c2=O)Cc2cc3c(CN(C)C)c(O)ccc3nc2-1 [topotecan] | good substrates | – | – | – | – | – | – | –
